From patent US6812229B1, “Carbamate derivative and agricultural/horticultural fungicide” (Kumiai Chemical Industry Co., Ltd., priority 1999, dated 2004)

These compounds were tested on Erysiphe graminis (assay: Test for preventive effect on wheat powdery mildew). Conditions: wheat seedlings (Norin-61-go), two-leaf stage, 500 ppm active ingredient, wettable powder, total diseased area of first leaves 10 days after inoculation.
Type: in vivo
Procedure: 10 Wheat seeds (variety: Norin-61-go) were sown in each plastic pot having a diameter of 6 cm, and grown in a greenhouse. Wheat seedlings which reached a two-leaf stage were treated with 10 ml per pot of aqueous solutions of wettable powders prepared in accordance with Formulation Example 2, at a concentration of 500 ppm in terms of the active ingredients, and dried in the air. Then, the seedlings were inoculated with Erysiphe graminis spore and controlled in a greenhouse. 10 Days after the inoculation, the total diseased area of the first leaves in each pot was observed and evaluated on the basis of the standards shown in Table 21.

SMILES | Evaluation
COC(=O)NCc1cc(C(C)=NOCc2ccccc2)ccc1Cl (single isomer, unassigned) [A-80] | A (No diseased area)
COC(=O)NCc1cc(C(C)=NOCc2ccccc2Cl)ccc1Cl (single isomer, unassigned) [A-84] | A (No diseased area)
COC(=O)NCc1cc(C(C)=NOCc2cccc(Cl)c2)ccc1Cl (single isomer, unassigned) [A-85] | A (No diseased area)
COC(=O)NCc1cc(C(C)=NOCc2ccc(Cl)cc2)ccc1Cl (single isomer, unassigned) [A-86] | A (No diseased area)
C=CCON=C(C)c1cccc(CNC(=O)OC)c1 [A-37] | A (No diseased area)
COC(=O)NCc1cccc(C(C)=NOCc2ccccc2)c1 [A-38] | A (No diseased area)
CCON=C(C)c1cccc(CNC(=O)OC)c1 [A-39] | A (No diseased area)
CON=C(C)c1cccc(CNC(=O)OC)c1 [A-40, Methyl N-[3-(1-methoxyiminoethyl)benzyl]carbamate] | A (No diseased area)
C=CCON=C(c1ccccc1)c1cccc(CNC(=O)OC)c1 [A-41] | B (Diseased area of less than 5%)
CON=C(c1ccccc1)c1cccc(CNC(=O)OC)c1 [A-42] | A (No diseased area)
CCON=C(c1ccccc1)c1cccc(CNC(=O)OC)c1 [A-43] | A (No diseased area)
CON=C(C)c1ccc(Cl)c(CNC(=O)OC)c1 [A-46] | A (No diseased area)
CCON=C(C)c1ccc(Cl)c(CNC(=O)OC)c1 [A-49] | A (No diseased area)
CCCON=C(C)c1ccc(Cl)c(CNC(=O)OC)c1 [A-50] | A (No diseased area)
COC(=O)NCc1cc(C(C)=NOC(C)(C)C)ccc1Cl [A-55] | A (No diseased area)
COC(=O)NCc1cc(C(C)=NOCc2cccc(C(F)(F)F)c2)ccc1Cl [A-100] | A (No diseased area)
COC(=O)NCc1cc(C(C)=NOCc2ccc(C(F)(F)F)cc2)ccc1Cl [A-101] | A (No diseased area)

The compounds below were run on Septoria nodorum (assay: Test for preventive effect on Septoria leaf blotch of wheat). Conditions: wheat seedlings (Norin-61-go), two-leaf stage, 50 ppm active ingredient, 10 ml per pot, evaluated 10 days after inoculation with Septoria nodorum.
Type: in vivo
Description: [table] 10 Wheat seeds (variety: Norin-61-go) were sown in each plastic pot having a diameter of 6 cm, and grown in a greenhouse. […] Then, the seedlings were inoculated with Septoria nodorum […] controlled in a greenhouse. 10 Days after the inoculation, the total diseased area of the first leaves in each pot was observed and evaluated on the basis of the standards shown in Table 21.

SMILES | Evaluation (total diseased area of the first leaves)
COC(=O)NCc1cc(C(C)=NOCc2ccccc2)ccc1Cl (single isomer, unassigned) [A-80] | A (No diseased area)
COC(=O)NCc1cc(C(C)=NOCc2cccc(Cl)c2)ccc1Cl (single isomer, unassigned) [A-85] | B (Diseased area of less than 5%)
COC(=O)NCc1cc(C(C)=NOC(C)c2ccccc2Cl)ccc1F (centres unmarked) [A-378] | A (No diseased area)
COC(=O)NCc1cc(C(C)=NOC(C)c2cccc(Cl)c2)ccc1F (centres unmarked) [A-379] | A (No diseased area)
COC(=O)NCc1cc(C(C)=NOC(C)c2ccc(Cl)cc2)ccc1F (centres unmarked) [A-380] | A (No diseased area)
COC(=O)NCc1c(C)c(C)c(C)c(C(C)=NOCc2ccccc2)c1C [A-381] | A (No diseased area)
COC(=O)NCc1c(Cl)c(Cl)c(Cl)c(C(C)=NOCc2ccccc2)c1Cl [A-382] | B (Diseased area of less than 5%)
COC(=O)NCc1cccc(C(C)=NOc2cccc(Cl)c2C#N)c1 [A-385] | B (Diseased area of less than 5%)
COC(=O)NCc1cccc(C(C)=NOCc2cccc(Cl)c2Cl)c1 [A-386] | B (Diseased area of less than 5%)
COC(=O)NCc1cccc(C(C)=NOCc2ccc(Cl)cc2Cl)c1 [A-387] | B (Diseased area of less than 5%)
COC(=O)NCc1cccc(C(C)=NOCc2cc(Cl)ccc2Cl)c1 [A-388] | A (No diseased area)
COC(=O)NCc1cccc(C(C)=NOCc2c(Cl)cccc2Cl)c1 [A-389] | A (No diseased area)
COC(=O)NCc1cc(C(C)=NOCc2cccc(C#N)n2)ccc1Cl [A-396] | A (No diseased area)
COC(=O)NCc1cc(C(C)=NOCc2cccnc2C#N)ccc1Cl [A-397] | A (No diseased area)
COC(=O)NCc1cccc(C(C)=NOCc2ccccc2F)c1 [A-398] | A (No diseased area)
COC(=O)NCc1cccc(C(C)=NOCc2ccc(F)cc2)c1 [A-400] | B (Diseased area of less than 5%)
COC(=O)NCc1cc(C(C)=NOCC(=O)c2ccc(Cl)cc2)ccc1Cl [A-403] | A (No diseased area)
COC(=O)NCc1cc(C(C)=NOCC(=O)c2ccc(OC)cc2)ccc1Cl [A-404] | A (No diseased area)
COC(=O)NCc1cc(C(=NOCc2ccccn2)C2CC2)ccc1Cl [A-405] | A (No diseased area)
COC(=O)NCc1cc(C(C)=NOC(C)c2ccccc2C)ccc1Cl (centres unmarked) [A-406] | A (No diseased area)

SMILES | Evaluation (total diseased area of the first leaves)
COC(=O)NCc1cc(C(C)=NOC(C)c2cccc(C)c2)ccc1Cl (centres unmarked) [A-407] | A (No diseased area)
COC(=O)NCc1cc(C(C)=NOCc2ccc(C(C)=O)o2)ccc1Cl [A-410] | A (No diseased area)
COC(=O)NCc1cc(C(C)=NOC2C=CCC2OC)ccc1Cl (centres unmarked) [A-411] | A (No diseased area)
CON=C(C)C(ON=C(C)c1ccc(Cl)c(CNC(=O)OC)c1)C(C)=NOC (centres unmarked) [A-412] | A (No diseased area)
COC(=O)NCc1cc(C(C)=NOCc2nc(C)cc(C)n2)ccc1Cl [A-413] | A (No diseased area)
COC(=O)NCc1cc(C(C)=NOCc2ccccc2[N+](=O)[O-])ccc1Cl [A-414] | A (No diseased area)
COC(=O)NCc1cc(C(C)=NOCc2cccs2)ccc1Cl [A-415] | A (No diseased area)
COC(=O)NCc1cc(C(C)=NOCc2cscn2)ccc1Cl [A-416] | A (No diseased area)
COC(=O)NCc1cc(C(C)=NOCc2cccc(OC)n2)ccc1Cl [A-417] | A (No diseased area)
CCOc1cccc(CON=C(C)c2ccc(Cl)c(CNC(=O)OC)c2)n1 [A-418] | A (No diseased area)
COC(=O)NCc1cc(C(C)=NOCc2cccc(C#N)c2)ccc1F [A-428] | A (No diseased area)
COC(=O)NCc1cc(C(C)=NOCc2cccc(C)n2)ccc1F [A-430] | A (No diseased area)
COC(=O)NCc1cc(C(C)=NOCc2ccc3ccccc3n2)ccc1Cl [A-431] | A (No diseased area)
COC(=O)NCc1cc(C(C)=NOCc2nc(C(F)(F)F)cs2)ccc1Cl [A-432] | A (No diseased area)
COC(=O)NCc1cc(C(C)=NOCc2cccc(C)[n+]2[O-])ccc1Cl [A-433] | B (Diseased area of less than 5%)
COC(=O)NCc1cc(C=NOCc2ccc(Cl)cc2)ccc1Cl [A-438] | B (Diseased area of less than 5%)
COC(=O)NCc1cc(C(C)=NOCc2ccc3ccccc3n2)ccc1F [A-440] | B (Diseased area of less than 5%)
COC(=O)NCc1cc(C(C)=NOCC2CCCO2)ccc1Cl (centres unmarked) [A-443] | B (Diseased area of less than 5%)
COC(=O)NCc1cc(C(C)=NOC2C=CC(C(Cl)(Cl)Cl)C2)ccc1Cl (centres unmarked) [A-444] | B (Diseased area of less than 5%)
